From patent publication EP2033635B1, “Use of phenylbutyric acid or salts thereof for treating pruritus” (Asan Laboratories Company (Cayman) Limited, priority 2007, dated 2009)

How the values were obtained:
Format in all cases: cell-based
Jurkat T cells [1] = test: Flow cytometry of cell proliferation, cytotoxicity, apoptosis and cell cycle in Jurkat T cells
Protocol: Jurkat T cells were treated in the presence of increasing concentrations of 4-phenylbutyrate, ionomycin, and/or phorbol 12-myristate 13-acetate (PMA) for 24-72 hr at 37°C.

Jurkat T cells [2] = test: Real-time PCR gene expression profiling (RT2 Profiler PCR Array Human Th1-Th2-Th3) in Jurkat T cells stimulated with PMA/ionomycin
Protocol: FIGs. […] Jurkat T cells were pre-incubated with phenylbutyrate (1 mM) for 24 hrs, and then stimulated with ionomycin (1 µM) and PMA (10 ng/ml) for 6 hrs. Using real-time PCR, the expression of a panel of genes related to helper T cells with or without T-cell stimulation and phenylbutyrate treatment was analyzed. The array includes cytokine genes representative of Th1, Th2 and Th3 cells, gene encoding transcriptional factors regulating the expression of cytokines as well as other markers of CD4+ T lymphocytes, genes involved in immune cell activation in the Th1 and Th2 type immune responses, and genes involved in the antimicrobial humoral response. Results are the mean ± SE of three determinations, expressed as the fold induction (observed experimental relative unit/basal control relative unit in the absence of any stimuli or treatment);
Jurkat T-cells were nonstimulated or stimulated with ionomycin (1 µM) and PMA (10 ng/ml) for 6 hrs in the absence or presence of pre-incubation of 4-phenylbutyrate sodium (1 mM) for 24 hrs, RNA was extracted and then RT-PCR was performed for profiling the expression of 84 genes related to Th1-Th2-Th3 responses shown in the gene table (FIG. 2).

human IL-2 promoter = test: Chromatin immunoprecipitation (ChIP) assay of transcription-factor binding and acetyl H3 at the IL-2 promoter in Jurkat T cells; conditions: 4-phenylbutyrate sodium 1 mM 24 hrs, then ionomycin 1 µM and PMA 10 ng/ml 6 hrs
Protocol: The induction of multiple cytokine expression depends on the coordinated activation of transcription factors, mostly including NFκB, NF-AT, and AP-1 (Sancho R, et al. J Immunol 172:2341-51, 2004; Li-Weber M, et al. Eur J Immunol 34 :1111-18, 2004). Because induction of cytokines is regulated mainly at the transcriptional level, chromatin immunoprecipitation (ChIP) analysis in Jurkat T cells was performed to determine the binding of NFκB, NF-AT, and AP-1 to IL-2 promoter. Jurkat T cells were nonstimulated or stimulated with ionomycin (1 µM) and PMA (10 ng/ml) for 6 hrs in the absence or presence of pre-incubation of 4-phenylbutyrate sodium (1 mM) for 24 hrs, then formaldehyde crosslinking between protein and DNA and ChIP using anti- NFκB, NF-AT, AP-1, Sp1 or acetyl H3 antibodies (Santa Cruz) were performed. PCR primers were designed to amplify the human IL-2 promoter: F 5'-[…] (-317 to -292 in the IL-2 promoter), R 5'-[…] (+33 to 58). PCR amplifications used a three-step protocol with 90°C (30 s) denaturing temperature, 59°C (45 s) primer annealing temperature, and 72°C (30 s) enzyme reaction temperature for 35 cycles.

[3] = 1 mM for 48 hrs, control versus treated cells, flow cytometry
[4] = PMA/ionomycin-induced Jurkat T-cell activation, result in words
[5] = phenylbutyrate 1 mM 24 hrs, then ionomycin 1 µM + PMA 10 ng/ml 6 hrs, mitogen stimulation alone 2.68

In the case of O=C([O-])CCCc1ccccc1.[Na+] [Phenylbutyrate, 4-phenylbutyrate sodium], the apoptosis (Jurkat T cells [1]; [3]) was “no significant differences”, the cell proliferation (Jurkat T cells [1]; [3]) was “no significant differences” and the cytotoxicity (Jurkat T cells [1]; [3]) was “no significant differences”. For the same compound, the “entry of the cells into the S phase of the cell cycle” value (Jurkat T cells [1]; pre-treatment 1 mM for 24 hrs, 48 hrs after stimulation with ionomycin 1 µM plus PMA 10 ng/ml) was “almost completely prevented”, the “expression of SOCS1, a suppressor of cytokine signaling” value (Jurkat T cells [2]; [4]) was “upregulates more expression” and the “induction of Th1 and Th2 cytokines and related genes, T-cell activation markers, immune response genes” value (Jurkat T cells [2]; [4]) was “completely suppresses or significantly decreases”. For the same compound, the “fold induction of CCL7” value (Jurkat T cells [2]; [5]) was 1.04 fold, the “fold induction of CCL11” value (Jurkat T cells [2]; [5]) was 0.98 fold and the “fold induction of CCR5” value (Jurkat T cells [2]; [5]) was 0.98 fold. For the same compound, the “fold induction of IL6” value (Jurkat T cells [2]; [5]) was 0.98 fold, the “fold induction of IL6R” value (Jurkat T cells [2]; [5]) was 0.98 fold and the “fold induction of IL9” value (Jurkat T cells [2]; [5]) was 0.98 fold. For the same compound, the “fold induction of IL12B” value (Jurkat T cells [2]; [5]) was 0.98 fold, the “fold induction of IL12RB2” value (Jurkat T cells [2]; [5]) was 0.98 fold and the “fold induction of IL13” value (Jurkat T cells [2]; [5]) was 0.98 fold. For the same compound, the “fold induction of IL13RA1” value (Jurkat T cells [2]; [5]) was 0.98 fold, the “fold induction of IL18” value (Jurkat T cells [2]; [5]) was 0.98 fold and the “fold induction of MAF” value (Jurkat T cells [2]; [5]) was 0.98 fold. The “fold induction of SFTPD” value (Jurkat T cells [2]; [5]) was 0.98 fold, the “fold induction of TLR4” value (Jurkat T cells [2]; [5]) was 0.98 fold and the “fold induction of LAT” value (Jurkat T cells [2]; phenylbutyrate 1 mM 24 hrs, then ionomycin 1 µM + PMA 10 ng/ml 6 hrs, mitogen stimulation alone 3.12) was 1.57 fold. For the same compound, the “fold induction of CCR2” value (Jurkat T cells [2]; phenylbutyrate 1 mM 24 hrs, then ionomycin 1 µM + PMA 10 ng/ml 6 hrs, mitogen stimulation alone 4.20) was 0.84 fold, the “fold induction of JAK2” value (Jurkat T cells [2]; phenylbutyrate 1 mM 24 hrs, then ionomycin 1 µM + PMA 10 ng/ml 6 hrs, mitogen stimulation alone 4.72) was 2.27 fold and the “fold induction of SOCS1” value (Jurkat T cells [2]; phenylbutyrate 1 mM 24 hrs, then ionomycin 1 µM + PMA 10 ng/ml 6 hrs, mitogen stimulation alone 4.82) was 8.59 fold. For the same compound, the “fold induction of IRF1” value (Jurkat T cells [2]; phenylbutyrate 1 mM 24 hrs, then ionomycin 1 µM + PMA 10 ng/ml 6 hrs, mitogen stimulation alone 5.86) was 1.7 fold, the “fold induction of CCR4” value (Jurkat T cells [2]; phenylbutyrate 1 mM 24 hrs, then ionomycin 1 µM + PMA 10 ng/ml 6 hrs, mitogen stimulation alone 7.41) was 1.93 fold and the “fold induction of STAT4” value (Jurkat T cells [2]; phenylbutyrate 1 mM 24 hrs, then ionomycin 1 µM + PMA 10 ng/ml 6 hrs, mitogen stimulation alone 7.89) was 3.32 fold. The “fold induction of IL1R1” value (Jurkat T cells [2]; phenylbutyrate 1 mM 24 hrs, then ionomycin 1 µM + PMA 10 ng/ml 6 hrs, mitogen stimulation alone 11.31) was 3.92 fold, the “fold induction of IL18R1” value (Jurkat T cells [2]; phenylbutyrate 1 mM 24 hrs, then ionomycin 1 µM + PMA 10 ng/ml 6 hrs, mitogen stimulation alone 19.97) was 0.98 fold and the “fold induction of IRF4” value (Jurkat T cells [2]; phenylbutyrate 1 mM 24 hrs, then ionomycin 1 µM + PMA 10 ng/ml 6 hrs, mitogen stimulation alone 26.17) was 16.50 fold. The “fold induction of TLR6” value (Jurkat T cells [2]; phenylbutyrate 1 mM 24 hrs, then ionomycin 1 µM + PMA 10 ng/ml 6 hrs, mitogen stimulation alone 29.04) was 10.43 fold, the “fold induction of IL4R” value (Jurkat T cells [2]; phenylbutyrate 1 mM 24 hrs, then ionomycin 1 µM + PMA 10 ng/ml 6 hrs, mitogen stimulation alone 42.81) was 9.53 fold and the “fold induction of BCL3” value (Jurkat T cells [2]; phenylbutyrate 1 mM 24 hrs, then ionomycin 1 µM + PMA 10 ng/ml 6 hrs, mitogen stimulation alone 58.08) was 19.73 fold. For the same compound, the “fold induction of CD69” value (Jurkat T cells [2]; phenylbutyrate 1 mM 24 hrs, then ionomycin 1 µM + PMA 10 ng/ml 6 hrs, mitogen stimulation alone 87.43) was 48.57 fold, the “fold induction of TNFRSF9” value (Jurkat T cells [2]; phenylbutyrate 1 mM 24 hrs, then ionomycin 1 µM + PMA 10 ng/ml 6 hrs, mitogen stimulation alone 89.26) was 13.01 fold and the “fold induction of IFN-gamma” value (Jurkat T cells [2]; phenylbutyrate 1 mM 24 hrs, then ionomycin 1 µM + PMA 10 ng/ml 6 hrs, mitogen stimulation alone 126.24) was 99.18 fold. The “fold induction of IL2RA” value (Jurkat T cells [2]; phenylbutyrate 1 mM 24 hrs, then ionomycin 1 µM + PMA 10 ng/ml 6 hrs, mitogen stimulation alone 151.17) was 64.98 fold, the “fold induction of CSF2” value (Jurkat T cells [2]; phenylbutyrate 1 mM 24 hrs, then ionomycin 1 µM + PMA 10 ng/ml 6 hrs, mitogen stimulation alone 229.13) was 88.77 fold and the “fold induction of IL2” value (Jurkat T cells [2]; phenylbutyrate 1 mM 24 hrs, then ionomycin 1 µM + PMA 10 ng/ml 6 hrs, mitogen stimulation alone 831.75) was 304.86 fold. For the same compound, the “DNA binding of AP-1 to IL-2 promoter” value (human IL-2 promoter) was “decreases”, the “DNA binding of NF-AT to IL-2 promoter” value (human IL-2 promoter) was “decreases” and the “DNA binding of NFκB to IL-2 promoter” value (human IL-2 promoter) was “decreases”. For the same compound, the “chromatin structure, acetyl H3 status” value (human IL-2 promoter) was “altering acetyl H3 status”.
